{
  "source": "patent US10245246B2",
  "about": "“β-substituted β-amino acids and analogs as chemotherapeutic agents” (QUADRIGA BIOSCIENCES, INC., priority 2014, dated 2019)",
  "key": {"B16 melanoma cells": {"test_system": "B16 melanoma cells", "test": "In vivo tumor growth suppression, B16 efficacy model", "conditions": "C57BL/6 mice, s.c. B16 melanoma, dosed IP daily for 12 days; test compound 5 and 10 mg/kg, melphalan 2.5 mg/kg"}, "[1]": {"test_system": "LLCPK cells conditionally expressing hLAT1", "format": "cell-based"}},
  "data": [
    {"compound": "N[C@@H](Cc1ccc(N(CCCl)CCCl)cc1)C(=O)O", "note": "[Melphalan]", "values": [
      {"measurement": "Tumor Growth (% Control), 5 days post-dosing", "setting": "B16 melanoma cells", "value": 56, "unit": "% Control"},
      {"measurement": "Tumor Growth (% Control), End of dosing", "setting": "B16 melanoma cells", "value": 33, "unit": "% Control"},
      {"measurement": "percent surviving cells in cells expressing LAT1 compared to cells not expressing LAT1 (reduction)", "setting": "[1]", "value": "about the same"}
    ]}
  ]
}
